Results as given in patent US9079913B2, “Spiro-oxindole MDM2 antagonists” (The Regents of the University of Michigan, priority 2009, dated 2015).
Like-named read-outs stand apart in the source and are kept apart here.

Tests used:
[1] = test system: cancer cell lines with wild-type p53 / mutated or deleted p53 (ATCC); assay: Cell growth assay (WST-8), other cancer cell lines; type: cell-based; details: Homo sapiens
[2] = test system: Isogenic HCT-116 colon cancer cell lines; assay: cells; type: cell-based; details: Homo sapiens;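 further: cells grown in 96-well plates in McCoy's 5A medium with 10% FBS, exposed to compound for 4 days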
Description: Cells were seeded in 96-well flat bottom cell culture plates at a density of 2−3×10^3 cells/well with compounds and incubated for 4 days.

[3] = molecular target: recombinant human His-tagged MDM2 protein (residues 1-118) (Homo sapiens (Human), UniProt Q00987); assay: Fluorescence-polarization MDM2 binding assay;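 further: fluorescence polarization read after three hours of incubation in potassium phosphate buffer containing bovine gamma globulin and Triton X-100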
[4] = LNCaP, Table 19C, LNCaP cells, read-out: Cell growth inhibition using WST assay, LNCaP IC50
[5] = PC-3, Table 19C, PC3 cells, read-out: Cell growth inhibition using WST assay, PC3 IC50
[6] = HCT-116, read-out: Cell growth inhibition using WST assay, HCT116 p53KO IC50, Table 19C, HCT116 p53KO
[7] = HCT-116, read-out: Cell growth inhibition using WST assay, HCT116 p53WT IC50, Table 19C, HCT116 p53WT
[8] = Table 19C, read-out: Bidning affinities to MDM2 as determined using FP assay IC50
[9] = LNCaP, Table 19D, LNCaP cells, read-out: LNCaP IC50
[10] = PC-3, Table 19D, PC3 cells, read-out: PC3 IC50
[11] = HCT-116, read-out: HCT116p53KO IC50, Table 19D, HCT116 p53KO
[12] = HCT-116, read-out: HCT116p53WT IC50, Table 19D, HCT116 p53WT
[13] = Table 19D, read-out: MDM2 Binding Affinities IC50

recombinant human His-tagged MDM2 protein (residues 1-118), sequence (Q00987 1-118): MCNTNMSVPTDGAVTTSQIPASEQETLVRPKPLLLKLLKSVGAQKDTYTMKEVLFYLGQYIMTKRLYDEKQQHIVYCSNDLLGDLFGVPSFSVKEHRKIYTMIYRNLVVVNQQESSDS

SMILES | IC50 [1, 4] [µM] | IC50 [1, 5] [µM] | IC50 [2, 6] [µM] | IC50 [2, 7] [µM] | IC50 [3, 8] [µM] | IC50 [1, 9] [µM] | IC50 [1, 10] [µM] | IC50 [2, 11] [µM] | IC50 [2, 12] [µM] | IC50 [3, 13] [µM]
CN(C)C[C@@H](O)CCNC(=O)[C@@H]1N[C@H](CC(C)(C)C)[C@]2(C(=O)Nc3cc(Cl)c(F)cc32)[C@H]1c1ccc(F)c(Cl)c1 [MI-319-28] | < 5 | > 5 | > 5 | < 5 | < 5 |  |  |  |  | 
CN(CC[C@H](O)CO)C(=O)[C@@H]1N[C@H](CC(C)(C)C)[C@]2(C(=O)Nc3cc(Cl)c(F)cc32)[C@H]1c1cccc(Cl)c1 [MI-319-29] | > 10 | > 10 | > 10 | > 10 | > 5 |  |  |  |  | 
CNC[C@@H](O)CCNC(=O)[C@@H]1N[C@H](CC(C)(C)C)[C@]2(C(=O)Nc3cc(Cl)c(F)cc32)[C@H]1c1ccc(F)c(Cl)c1 [MI-319-30] | > 5 | > 10 | > 10 | > 10 | < 5 |  |  |  |  | 
CC(C)(C)C[C@H]1N[C@@H](C(=O)NCCN2CCN(C(=O)CO)CC2)[C@H](c2cccc(Cl)c2)[C@@]12C(=O)Nc1cc(Cl)c(F)cc12 [MI-319-33] | 1.4 ± 0.2 | 23.6 ± 5.5 | 25.3 ± 2.8 | 2.1 ± 0.2 | < 1 |  |  |  |  | 
CC(C)(C)C[C@H]1N[C@@H](C(=O)NCC[C@H](O)CO)[C@H](c2cncc(Cl)c2)[C@@]12C(=O)Nc1cc(Cl)c(F)cc12 [MI-319-34] | < 10 | > 30 | > 30 | 9.5 ± 2.1 | < 10 |  |  |  |  | 
CC(C)(C)C[C@H]1N[C@@H](C(=O)NCC[C@H](O)CO)[C@H](c2cc(Cl)ccn2)[C@@]12C(=O)Nc1cc(Cl)c(F)cc12 [MI-319-35] | 3.2 ± 0.3 | > 10 | > 10 | 4.8 ± 0.5 | < 10 |  |  |  |  | 
CC(C)(CCO)C[C@H]1N[C@@H](C(=O)NCC[C@H](O)CO)[C@H](c2cccc(Cl)c2)[C@@]12C(=O)Nc1cc(Cl)c(F)cc12 [MI-319-36] | 6.4 ± 1.4 | > 30 | > 30 | 12.2 ± 1.7 | < 5 |  |  |  |  | 
O=C(NCC[C@H](O)CO)[C@@H]1N[C@H](CC2(CCO)CCCC2)[C@]2(C(=O)Nc3cc(Cl)c(F)cc32)[C@H]1c1cccc(Cl)c1 [MI-319-37] | < 5 | > 30 | > 30 | < 10 | < 1 |  |  |  |  | 
O=C(NCC[C@H](O)CO)[C@H]1[C@H](c2cccc(Cl)c2)[C@@]2(C(=O)Nc3cc(Cl)c(F)cc32)[C@H]2CC3(CCCC3)CCN12 [MI-319-38] | > 5 | > 10 | > 10 | > 10 | > 3 |  |  |  |  | 
CC[C@H]1N[C@@H](C(=O)NCCN2CCOCC2)[C@H](c2cccc(Cl)c2)[C@@]12C(=O)Nc1cc(Cl)c(F)cc12 [MI-319-39] | > 3 | > 10 | > 10 | > 3 | > 10 |  |  |  |  | 
CC(C)(C)C[C@H]1N[C@@H](C(=O)NCC[C@H](O)CO)[C@H](c2ccc(F)c(Cl)c2)[C@@]12C(=O)Nc1cc(F)c(F)cc12 [MI-519-8] |  |  |  |  |  | < 5 | > 10 | > 10 | < 5 | < 3
CC(C)(C)C[C@H]1N[C@@H](C(=O)NCC[C@H](O)CO)[C@H](c2cccc(Cl)c2)[C@@]12C(=O)Nc1cc(F)c(F)cc12 [MI-519-9] |  |  |  |  |  | < 3 | > 10 | > 10 | < 3 | < 3
CN1[C@@H](C(=O)NCC[C@H](O)CO)[C@H](c2cccc(Cl)c2F)[C@@]2(C(=O)Nc3cc(F)c(F)cc32)[C@H]1CC(C)(C)C [MI-519-10-me] |  |  |  |  |  | > 1 | > 30 | > 30 | > 1 | < 10
CC(C)(C)C[C@H]1N[C@@H](C(=O)NCC[C@H](O)CO)[C@H](c2cccc(Cl)c2F)[C@@]12C(=O)Nc1cc(F)c(F)cc12 [MI-519-10] |  |  |  |  |  | < 3 | > 10 | > 10 | < 3 | < 3
